In US8957096B2, “Herbicidally active oxime-ether-substituted benzoylamides” (Bayer Intellectual Property GmbH, priority 2011, dated 2015):

Experiments:
Assay type in all cases: in vivo
Setaria viridis = experiment: Pre-emergence herbicidal action against harmful plants; settings: 504 h, application rate 320 g/ha, assessed visually after 3 weeks vs untreated controls, read-out: herbicidal activity in percent (%)
Text: (§1) 1. Pre-Emergence Herbicidal Action Against Harmful Plants Seeds of monocotyledonous and dicotyledonous weed plants and crop plants are placed in wood-fiber pots in sandy loam and covered with soil. The compounds according to the invention, formulated in the form of wettable powders (WP) or as emulsion concentrates (EC), are then applied as aqueous suspension or emulsion at a water application rate of 600 to 800 l/ha (converted) with the addition of 0.2% of wetting agent to the surface of the covering soil. After the treatment, the pots are placed in a greenhouse and kept under good growth conditions for the test plants. The damage to the test plants is assessed visually after a test period of 3 weeks by comparison with untreated controls (herbicidal activity in percent (%): 100% activity=the plants have died, 0% activity=like control plants). Here, the compounds Nos. 1-002, 1-004, 1-007, 1-008, 1-043, 1-044, 1-046, 1-047, 1-060, 1-079, 1-080, 1-082, 1-083, 1-085, 1-095, 1-096, 1-098, 1-099, 1-059, 2-015, 3-015, 3-018, 3-020, 4-001, 4-118, 5-004, 5-017, 5-043, 5-056, 5-082, 5-095, 6-017, 7-017, 8-017 and 8-014, for example, each show, at an application rate of 320 g/ha, an activity of at least 80% against Abuthilon theophrasti and Amaranthus retroflexus. The compounds Nos. 1-001, 1-005, 1-014, 1-015, 1-017, 1-018, 1-020, 1-033, 1-040, 1-041, 1-053, 1-054, 1-056, 1-057, 1-092, 1-093, 3-014, 3-015, 8-014, 8-017 and 8-015 each show, at an application rate of 320 g/ha, an activity of at least 80% against Setaria viridis and Stellaria media. The compounds Nos. 3-017, 4-092 and 6-004 show, at an application rate of 320 g/ha, an activity of at least 80% against Amaranthus retroflexus and Veronica persica.

Abuthilon theophrasti [1] = experiment: as above; settings: 504 h, application rate 320 g/ha, assessed visually after 3 weeks vs untreated controls, read-out: herbicidal activity in percent (%)
Text: as §1

Amaranthus retroflexus [2] = experiment: as above; settings: 504 h, application rate 320 g/ha, assessed visually after 3 weeks vs untreated controls, read-out: herbicidal activity in percent (%)
Text: as §1

Stellaria media [3] = experiment: as above; settings: 504 h, application rate 320 g/ha, assessed visually after 3 weeks vs untreated controls, read-out: herbicidal activity in percent (%)
Text: as §1

Abuthilon theophrasti [4] = experiment: Post-emergence herbicidal action against harmful plants; settings: 504 h, application rate 80 g/ha, assessed visually after about 3 weeks vs untreated controls, read-out: herbicidal action in percent (%)
Experimental: (§2) 2. Post-Emergence Herbicidal Action Against Harmful Plants Seeds of monocotyledonous and dicotyledonous weed and crop plants are placed in sandy loam in wood-fiber pots, covered with soil and cultivated in a greenhouse under good growth conditions. 2 to 3 weeks after sowing, the test plants are treated at the one-leaf stage. The inventive compounds formulated in the form of wettable powders (WP) or as emulsion concentrates (EC) are then sprayed onto the green parts of the plants as an aqueous suspension or emulsion at a water application rate of 600 to 800 l/ha (converted) with addition of 0.2% wetting agent. After the test plants have been left to stand in the greenhouse under optimal growth conditions for about 3 weeks, the action of the formulations is assessed visually in comparison to untreated controls (herbicidal action in percent (%): 100% activity=the plants have died, 0% activity=like control plants). Here, the compounds Nos. 1-001, 1-002, 1-004, 1-005, 1-007, 1-008, 1-014, 1-015, 1-017, 1-018, 1-020, 1-033, 1-040, 1-041, 1-043, 1-044, 1-046, 1-047, 1-053, 1-054, 1-056, 1-057, 1-059, 1-060, 1-079, 1-080, 1-082, 1-083, 1-086, 1-092, 1-093, 1-095, 1-096, 1-098, 1-099, 2-015, 3-014, 3-015, 3-017, 3-018, 3-020, 5-082, 5-095, 6-017, 7-017 and 8-014 each show, at an application rate of 80 g/ha, an activity of at least 80% against Abuthilon theophrasti, Amaranthus retroflexus and Stellaria media. The compounds Nos. 4-092, 4-093, 5-004, 5-017, 5-043 and 5-056 each show, at an application rate of 80 g/ha, an activity of at least 80% against Echinocloa crus galli, Pharbitis purpureum and Stellaria media.

Amaranthus retroflexus [5] = experiment: as above; settings: 504 h, application rate 80 g/ha, assessed visually after about 3 weeks vs untreated controls, read-out: herbicidal action in percent (%)
Experimental: as §2

Stellaria media [6] = experiment: as above; settings: 504 h, application rate 80 g/ha, assessed visually after about 3 weeks vs untreated controls, read-out: herbicidal action in percent (%)
Experimental: as §2

C=NOCc1c(S(C)(=O)=O)ccc(C(=O)Nc2nnc(C)o2)c1Cl [8-014]
≥ 80%: pest or weed control at 320 g/ha (Setaria viridis) | pest or weed control at 320 g/ha (Abuthilon theophrasti [1]) | pest or weed control at 320 g/ha (Amaranthus retroflexus [2]) | pest or weed control at 320 g/ha (Stellaria media [3]) | pest or weed control at 80 g/ha (Abuthilon theophrasti [4]) | pest or weed control at 80 g/ha (Amaranthus retroflexus [5]) | pest or weed control at 80 g/ha (Stellaria media [6])

C#CCON=Cc1c(S(C)(=O)=O)ccc(C(=O)Nc2nnnn2CC)c1Cl [1-057, 2-chloro-N-(1-ethyl-1H-tetrazol-5-yl)-4-(methylsulfonyl)-3-{[(prop-2-yn-1-yloxy)imino]methyl}benzamide]
≥ 80%: pest or weed control at 320 g/ha (Setaria viridis) | pest or weed control at 320 g/ha (Stellaria media [3]) | pest or weed control at 80 g/ha (Abuthilon theophrasti [4]) | pest or weed control at 80 g/ha (Amaranthus retroflexus [5]) | pest or weed control at 80 g/ha (Stellaria media [6])

CO/N=C/c1c(S(C)(=O)=O)ccc(C(=O)Nc2nnnn2C)c1Cl [1-014]
≥ 80%: pest or weed control at 320 g/ha (Setaria viridis) | pest or weed control at 320 g/ha (Stellaria media [3]) | pest or weed control at 80 g/ha (Abuthilon theophrasti [4]) | pest or weed control at 80 g/ha (Amaranthus retroflexus [5]) | pest or weed control at 80 g/ha (Stellaria media [6])

CC(C)=NOCc1c(S(C)(=O)=O)ccc(C(=O)Nc2nnc(C)o2)c1Cl [8-017]
≥ 80%: pest or weed control at 320 g/ha (Setaria viridis) | pest or weed control at 320 g/ha (Abuthilon theophrasti [1]) | pest or weed control at 320 g/ha (Amaranthus retroflexus [2]) | pest or weed control at 320 g/ha (Stellaria media [3])
